Assay results reported in PubChem BioAssay AID1918936 (Molecular Pharmacology Branch, DTP, NCI, 2023).

Test system: 349418-098-R-PDC complex spheroid viability
Assay: Anticancer human tumor 349418-098-R-PDC patient-derived lung adenocarcinoma cell line growth inhibition
Conditions: for IC50: curve of first compound; for viability, T/C: stronger effect = lower value
Summary of the method: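 Multicellular complex spheroids of tumor cells with human endothelial cells (HUVEC) and mesenchymal stem cells; the LSD1 inhibitor iadademstat was combined with standard-of-care or investigational agents. Top concentration at or near clinical Cmax, half-log dilutions; final DMSO ≤0.25%.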
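Further: spheroids exposed to agents for seven days before readout.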
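Wherever viability, T/C is given: 100% = DMSO vehicle control wells.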

How did the IC50 (second compound 0.1 µM) turn out when `O=C(c1cc(Cc2n[nH]c(=O)c3ccccc23)ccc1F)N1CCN(C(=O)C2CC2)CC1` + NC1CCC(NC2CC2c2ccccc2)CC1 was run?
The IC50 was 4.25 µM.

What about the IC50 (second compound 0.316 µM) of the same molecule?
The IC50 was 5.9 µM.

What about the IC50 (second compound 1 µM) of the same molecule?
Its IC50 is 4.18 µM.

And the IC50 (second compound 3.16 µM)?
The IC50 was 4.91 µM.

And the IC50 (second compound 10 µM)?
The IC50 was 2.52 µM.

What about the viability, T/C (second compound 0.1 µM, first compound 0.0316 µM) of the same molecule?
Its viability, T/C is 93.9%.

What about the viability, T/C (second compound 0.1 µM, first compound 0.1 µM) of the same molecule?
The viability, T/C was 88.8%.

And the viability, T/C (second compound 0.1 µM, first compound 0.316 µM)?
Its viability, T/C is 82.6%.

And the viability, T/C (second compound 0.1 µM, first compound 1 µM)?
Its viability, T/C is 77.8%.

What about the viability, T/C (second compound 0.1 µM, first compound 3.16 µM) of the same molecule?
The viability, T/C was 51.7%.

And the viability, T/C (second compound 0.1 µM, first compound 10 µM)?
Its viability, T/C is 40.6%.

And the viability, T/C (second compound 0.316 µM, first compound 0.0316 µM)?
Its viability, T/C is 93.8%.

And the viability, T/C (second compound 0.316 µM, first compound 0.1 µM)?
The viability, T/C was 87.3%.

What about the viability, T/C (second compound 0.316 µM, first compound 0.316 µM) of the same molecule?
Its viability, T/C is 82.4%.

What about the viability, T/C (second compound 0.316 µM, first compound 1 µM) of the same molecule?
Its viability, T/C is 77.2%.

And the viability, T/C (second compound 0.316 µM, first compound 3.16 µM)?
The viability, T/C was 59.5%.

What about the viability, T/C (second compound 0.316 µM, first compound 10 µM) of the same molecule?
The viability, T/C was 41.1%.

What about the viability, T/C (second compound 1 µM, first compound 0.0316 µM) of the same molecule?
The viability, T/C was 106%.

And the viability, T/C (second compound 1 µM, first compound 0.1 µM)?
The viability, T/C was 98.1%.

And the viability, T/C (second compound 1 µM, first compound 0.316 µM)?
The viability, T/C was 79.4%.

What about the viability, T/C (second compound 1 µM, first compound 1 µM) of the same molecule?
Its viability, T/C is 75.4%.

What about the viability, T/C (second compound 1 µM, first compound 3.16 µM) of the same molecule?
The viability, T/C was 62.2%.

And the viability, T/C (second compound 1 µM, first compound 10 µM)?
The viability, T/C was 28.9%.

What about the viability, T/C (second compound 3.16 µM, first compound 0.0316 µM) of the same molecule?
The viability, T/C was 92.4%.

What about the viability, T/C (second compound 3.16 µM, first compound 0.1 µM) of the same molecule?
The viability, T/C was 89%.

What about the viability, T/C (second compound 3.16 µM, first compound 0.316 µM) of the same molecule?
Its viability, T/C is 87%.

What about the viability, T/C (second compound 3.16 µM, first compound 1 µM) of the same molecule?
Its viability, T/C is 69.6%.

And the viability, T/C (second compound 3.16 µM, first compound 3.16 µM)?
The viability, T/C was 64.6%.

And the viability, T/C (second compound 3.16 µM, first compound 10 µM)?
Its viability, T/C is 32.4%.

What about the viability, T/C (second compound 10 µM, first compound 0.0316 µM) of the same molecule?
Its viability, T/C is 89.5%.

What about the viability, T/C (second compound 10 µM, first compound 0.1 µM) of the same molecule?
The viability, T/C was 68.7%.

What about the viability, T/C (second compound 10 µM, first compound 0.316 µM) of the same molecule?
Its viability, T/C is 64.8%.

And the viability, T/C (second compound 10 µM, first compound 1 µM)?
Its viability, T/C is 62.4%.

What about the viability, T/C (second compound 10 µM, first compound 3.16 µM) of the same molecule?
Its viability, T/C is 48.7%.

What about the viability, T/C (second compound 10 µM, first compound 10 µM) of the same molecule?
The viability, T/C was 38.2%.
